Like-named read-outs stand apart in the source and are kept apart here. Blank lines part the entries; values can stand above or below the molecule they belong to. Square brackets hold non-standard residues; d marks the D form. Peptide text beside a SMILES is read from it. * marks the point of attachment. ξ: configuration not given here. Palmitoyl = CCCCCCCCCCCCCCCC(=O)*; ξF = NC(Cc1ccccc1)C(=O)O
Columns and labels:
Type in all cases: cell-based
[1] = target: T1, CXCR4 (Homo sapiens, UniProt P61073); assay: Calcium flux assay in CCRF-CEM cells (SDF-1α activation of CXCR4; intrinsic agonist activity); set-up: a human T-cell ALL line that endogenously expresses CXCR4; endogenous in cells; host or cells: CCRF-CEM (human T-cell ALL line); details: SDF-1α activation of CXCR4, Calcium-4 dye, read-out: IC50 (nM), CXCR4 i1 loop compound Calcium Flux Data
T1 sequence (P61073 whole entry): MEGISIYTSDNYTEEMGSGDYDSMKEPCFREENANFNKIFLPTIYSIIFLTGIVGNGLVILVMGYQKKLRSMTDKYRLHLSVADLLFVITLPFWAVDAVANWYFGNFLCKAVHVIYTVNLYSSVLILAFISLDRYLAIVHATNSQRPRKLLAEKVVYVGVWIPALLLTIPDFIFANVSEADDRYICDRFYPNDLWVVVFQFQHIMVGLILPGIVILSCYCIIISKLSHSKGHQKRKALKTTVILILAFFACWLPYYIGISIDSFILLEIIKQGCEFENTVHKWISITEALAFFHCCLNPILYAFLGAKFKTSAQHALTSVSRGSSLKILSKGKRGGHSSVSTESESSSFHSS
Excerpt: Calcium Flux Assay is one of the most popular cell-based GPCR functional assays. It most often uses calcium sensing fluorescent dyes such as fura2 AM, fluo-4 and Calcium-4 to measure changes in intracellular calcium concentration. It is used mainly to detect GPCR signaling via Gaq subunit. Activation of these Gq-coupled GPCRs leads to activation of phospholipase C, which subsequently leads to increase in inositol phosphate production. IP3 receptors on endoplasmic reticulum sense the change then release calcium into cytoplasm. Intracellular calcium binding to the fluorescent dyes can be detected by instruments that quantify fluorescent intensities, such as FLIPR Tetra, Flexstation (MDS) and FDSS (Hamamatsu). In additional to assess Gq-couple receptor signaling, calcium flux assay can also be used to study Gs and Gi couple receptors by co-expressing CNG (cyclic nucleotide gated calcium channel) or chimeric G-proteins (Gqi5, Gsi5 for example). Activation of some Gi-coupled receptors can also be detected by calcium flux assay via Gβγmediated phospholipase C activation.
The calcium flux assay was used to assess SDF-1α activation of CXCR4 in CCRF-CEM cells (human T lymphoblasts from acute lymphoblastic leukemia). CCRF-CEM cells were seeded into 96-well black plates with clear bottom at 200K/well in RPMI 1640 media with 20 mM HEPES containing 0.2% BSA. After dye loading by incubating with Calcium-4 dye at 37° C. for 1 hour, cell plates were read at 37° C. using the Flexstation 3 workstation. The addition of test compounds or reference antagonists was accomplished either by manual pipetting or by liquid handling using the Flexstation. The latter allows the assessment of intrinsic agonist activity of the test compounds by measuring initial changes in fluorescent intensity. After incubation of 24 minutes at 37° C., SDF-1α was added and receptor activation was assessed by measuring changes in fluorescent intensity using the Flexstation.

[2] = target: T1, CXCR4; assay: Chemotaxis assay, effect on SDF1-a (CXCL12) induced migration of CCRF-CEM cells; set-up: a human T-cell ALL line that endogenously expresses CXCR4; endogenous in cells; host or cells: CCRF-CEM (human T-cell ALL line); details: CCRF-CEM, Table 18, i1 loop, CEM cells; for activity at 0.03 µM: drug conc 0.03 uM; for activity at 0.1 µM: drug conc 0.1 uM; for activity at 0.3 µM: drug conc 0.3 uM; for activity at 1 µM: drug conc 1.0 uM; for activity at 3 µM: drug conc 3.0 uM
[3] = target: T1, CXCR4; assay: Chemotaxis assay using SUP B-15 cells; set-up: A similar procedure was followed for chemotaxis using SUP B-15 cells; endogenous in cells; host or cells: SUP B-15 cells; details: SUP-B15, Table 18, i1 loop, SUP B-15 cells, drug conc 1.0 uM
Excerpt: Chemotaxis assays were utilized to determine the effect of compound on the directed migration of cells in response to chemokine. Cells that express a receptor of interest were placed in the upper chamber of a Transwell chemotaxis plate (Corning) and allowed to migrate through a polycarbonate membrane to a lower chamber containing the appropriate receptor-specific ligand. To test for antagonist or potentiating activity, cells were mixed with the desired concentration of compound prior to addition to the upper chamber. Conversely, agonist activity was determined by adding compound in the bottom chamber only without endogenous chemokine. The effect of compound is quantified by several parameters, including the extent of maximum response, the shift of agonist dose-response curves, and the area under the curve.
To measure the CXCR4-dependent migration of cells, the appropriate concentration of CXCL12 (SDF1a) or test compound was diluted in phenol red-free RMPI-1640/20 mM HEPES/0.5% BSA buffer and placed in the bottom chamber of a transwell apparatus. CCRF-CEM cells, a human T-cell ALL line that endogenously expresses CXCR4, were washed twice in buffer and resuspended at 133,000 cells/ml. A 75 μl sample of this suspension is mixed with the test compound of interest and placed in the upper chamber of a 5-micron transwell apparatus.
To initiate cell migration, the assembled transwell plate was placed in a 37° C., […] incubator for a specified time interval, typically between 30 and 120 minutes. After incubation, the unit was disassembled and the lower chamber placed at −80° C. overnight to facilitate lysis of cells. To quantify migrated cells, plates were thawed at 37° C. in a humidified chamber, and then a sample volume was removed from each well and mixed with an equal volume of CyQuant (Invitrogen) working solution in opaque plates. The fluorescence intensity of each well represents the DNA content and is directly proportional to cell number. Each sample was typically run in duplicate or triplicate and each plate included two separate negative controls. The plate background control, which included no cells in the upper chamber, was subtracted from all values. The negative control had no agonist added in the lower chamber, and served to establish the baseline for random migration. A similar procedure was followed for chemotaxis using SUP B-15 cells.

Compound: CCCCCCCCCCCCCCCC(=O)N[C@@H](CCCCN)C(=O)N[C@@H](CCCCN)C(=O)N[C@@H](CC(C)C)C(=O)N[C@@H](CCCNC(=N)N)C(=O)N[C@@H](CO)C(=O)N[C@@H](CCSC)C(=O)N[C@H](C(=O)N[C@@H](CC(=O)O)C(=O)N[C@@H](CCCCN)C(=O)N[C@@H](Cc1ccc(O)cc1)C(=O)N[C@@H](CCCNC(=N)N)C(=O)N[C@@H](CC(C)C)C(=O)N[C@@H](Cc1cnc[nH]1)C(N)=O)[C@@H](C)O [Compound 43] (Palmitoyl-KKLRSMTDKYRLH-NH2)
activity at 0.01 µM ([2]; drug conc 0.01 uM, read-out: AUC (% of)): 110%
activity at 0.03 µM ([2]; read-out: AUC (% of)): 110%
activity at 0.03 µM ([2]; read-out: Max (% of)): 92.7%
activity at 0.1 µM ([2]; read-out: AUC (% of)): 108%
activity at 0.1 µM ([2]; read-out: Max (% of)): 93.6%
activity at 0.3 µM ([2]; read-out: AUC (% of)): 97.9%
activity at 0.3 µM ([2]; read-out: Max (% of)): 84.5%
activity at 1 µM ([2]; read-out: Max (% of)): 78.9%
activity at 3 µM ([2]; read-out: AUC (% of)): 79.4%
activity at 3 µM ([2]; read-out: Max (% of)): 76.3%
activity at 1 µM ([3]; read-out: AUC (% of)): 70.8%
activity at 1 µM ([3]; read-out: Max (% of)): 55.8%

Compound: CCCCCCCCCCCCCCCC(=O)N[C@@H](CCSC)C(=O)NCC(=O)N[C@@H](Cc1ccc(O)cc1)C(=O)N[C@@H](CCC(N)=O)C(=O)N[C@H](CCCCN)C(=O)N[C@@H](CCCCN)C(=O)N[C@@H](CC(C)C)C(=O)N[C@@H](CCCNC(=N)N)C(=O)N[C@@H](CO)C(=O)N[C@@H](CCSC)C(=O)N[C@H](C(=O)N[C@@H](CC(=O)O)C(=O)N[C@@H](CCCCN)C(=O)NC(Cc1ccccc1)C(=O)N[C@@H](CCCNC(=N)N)C(=O)N[C@@H](C)C(N)=O)[C@@H](C)O (some centres unmarked) [Compound 153] (Palmitoyl-MGYQ[dK]KLRSMTDK[ξF]RA-NH2)
IC50 [1]: > 10000 nM

Compound: CCCCCCCCCCCCCCCC(=O)N[C@@H](CCSC)C(=O)NCC(=O)N[C@@H](Cc1ccc(O)cc1)C(=O)N[C@@H](CCC(N)=O)C(=O)N[C@H](CCCCN)C(=O)N[C@@H](CCCCN)C(=O)N[C@@H](CC(C)C)C(=O)N[C@@H](CCCNC(=N)N)C(=O)N[C@@H](CO)C(=O)N[C@@H](CCSC)C(=O)N[C@H](C(=O)N[C@@H](CC(=O)O)C(=O)N[C@@H](CCCCN)C(=O)N[C@@H](C)C(=O)N[C@@H](CCCNC(=N)N)C(=O)N[C@@H](CC(C)C)C(N)=O)[C@@H](C)O [Compound 151] (Palmitoyl-MGYQ[dK]KLRSMTDKARL-NH2)
IC50 [1]: > 10000 nM

Compound: CCCCCCCCCCCCCCCC(=O)N[C@@H](CCSC)C(=O)NCC(=O)N[C@@H](Cc1ccc(O)cc1)C(=O)N[C@@H](CCC(N)=O)C(=O)N[C@@H](CCCCN)C(=O)N[C@@H](CCCCN)C(=O)N[C@@H](CC(C)C)C(=O)N[C@@H](CCCNC(=N)N)C(=O)N[C@@H](CO)C(=O)N[C@@H](CCSC)C(=O)N[C@H](C(=O)N[C@@H](CC(=O)O)C(=O)N[C@@H](CCCCN)C(=O)N[C@@H](Cc1ccc(O)cc1)C(N)=O)[C@@H](C)O [Compound 37] (Palmitoyl-MGYQKKLRSMTDKY-NH2)
activity at 1 µM ([2]; read-out: AUC (% of)): 92.3%
activity at 1 µM ([2]; read-out: Max (% of)): 97.8%
activity at 1 µM ([3]; read-out: AUC (% of)): 63.5%
activity at 1 µM ([3]; read-out: Max (% of)): 91.1%

More lines, now with the values ahead:

IC50 [1]: > 10000 nM
Compound: CCCCCCCCCCCCCCCC(=O)N[C@@H](CCSC)C(=O)NCC(=O)N[C@@H](Cc1ccc(O)cc1)C(=O)N[C@@H](CCC(N)=O)C(=O)N[C@@H](CCCCN)C(=O)N[C@@H](CCCCN)C(=O)N[C@@H](CC(C)C)C(=O)N[C@@H](CCCNC(=N)N)C(=O)N[C@@H](CO)C(=O)N[C@@H](CCSC)C(=O)N[C@H](C(=O)N[C@@H](CC(=O)O)C(=O)N[C@@H](CCCCN)C(=O)N[C@H](Cc1ccc(O)cc1)C(=O)N[C@@H](CCCNC(=N)N)C(=O)N[C@@H](CC(C)C)C(N)=O)[C@@H](C)O [Compound 161] (Palmitoyl-MGYQKKLRSMTDK[dY]RL-NH2)

IC50 [1]: > 10000 nM
Compound: CCCCCCCCCCCCCCCC(=O)N[C@@H](CCSC)C(=O)NCC(=O)N[C@@H](Cc1ccc(O)cc1)C(=O)N[C@@H](CCC(N)=O)C(=O)N[C@H](CCCCN)C(=O)N[C@@H](CCCCN)C(=O)N[C@@H](CC(C)C)C(=O)N[C@@H](CCCNC(=N)N)C(=O)N[C@@H](CO)C(=O)N[C@@H](CCSC)C(=O)N[C@H](C(=O)N[C@@H](CC(=O)O)C(=O)N[C@@H](CCCCN)C(=O)N[C@@H](Cc1ccc(O)cc1)C(=O)N[C@@H](C)C(=O)N[C@@H](CC(C)C)C(N)=O)[C@@H](C)O [Compound 152] (Palmitoyl-MGYQ[dK]KLRSMTDKYAL-NH2)

IC50 [1]: > 10000 nM
Compound: CCCCCCCCCCCCCCCC(=O)N[C@@H](CCSC)C(=O)NCC(=O)N[C@@H](Cc1ccc(O)cc1)C(=O)N[C@@H](CCC(N)=O)C(=O)N[C@@H](CCCCN)C(=O)N[C@@H](CCCCN)C(=O)N[C@@H](CC(C)C)C(=O)N[C@@H](CCCNC(=N)N)C(=O)N[C@@H](CO)C(=O)N[C@@H](CCSC)C(=O)N[C@H](C(=O)N[C@@H](CC(=O)O)C(=O)N[C@@H](CCCCN)C(=O)N[C@@H](Cc1ccc(O)cc1)C(=O)N[C@@H](CCCNC(=N)N)C(=O)N[C@H](CC(C)C)C(N)=O)[C@@H](C)O [Compound 159] (Palmitoyl-MGYQKKLRSMTDKYR[dL]-NH2)

IC50 [1]: 72 nM
Compound: CCCCCCCCCCCCCCCC(=O)N[C@@H](CCSC)C(=O)NCC(=O)N[C@@H](Cc1ccc(O)cc1)C(=O)N[C@@H](CCC(N)=O)C(=O)N[C@@H](CCCCN)C(=O)N[C@@H](CCCCN)C(=O)N[C@H](CC(C)C)C(=O)N[C@@H](CCCNC(=N)N)C(=O)N[C@@H](CO)C(=O)N[C@@H](CCSC)C(=O)N[C@H](C(=O)N[C@@H](CC(=O)O)C(=O)N[C@@H](CCCCN)C(=O)N[C@@H](Cc1ccc(O)cc1)C(=O)N[C@@H](CCCNC(=N)N)C(=O)N[C@@H](CC(C)C)C(N)=O)[C@@H](C)O [Compound 170] (Palmitoyl-MGYQKK[dL]RSMTDKYRL-NH2)

IC50 [1]: 72 nM
Compound: CCCCCCCCCCCCCCCC(=O)N[C@@H](CCSC)C(=O)NCC(=O)N[C@@H](Cc1ccc(O)cc1)C(=O)N[C@@H](CCC(N)=O)C(=O)N[C@@H](CCCCN)C(=O)N[C@@H](CCCCN)C(=O)N[C@@H](CC(C)C)C(=O)N[C@H](CCCNC(=N)N)C(=O)N[C@@H](CO)C(=O)N[C@@H](CCSC)C(=O)N[C@H](C(=O)N[C@@H](CC(=O)O)C(=O)N[C@@H](CCCCN)C(=O)N[C@@H](Cc1ccc(O)cc1)C(=O)N[C@@H](CCCNC(=N)N)C(=O)N[C@@H](CC(C)C)C(N)=O)[C@@H](C)O [Compound 171] (Palmitoyl-MGYQKKL[dR]SMTDKYRL-NH2)

— patent US9096646B2, “CXCR4 receptor compounds” (priority 2008, dated 2015)
